In PubChem BioAssay AID1259407 (Chemical Carcinogenesis Research Information System (CCRIS), 2018) one finds mutagenic call data, which are given here for seven molecules.

This series relates to CCRIS mutagenicity, Ames/micronucleus/aberration tests. Briefly: CCRIS mutagenicity studies.
Setting [1] is: Test System: AMES SALMONELLA TYPHIMURIUM, Strain/Indicator: TA98, Metabolic Activation: NONE, Method: STANDARD PLATE.
[2] abbreviates: Test System: AMES SALMONELLA TYPHIMURIUM, Strain/Indicator: TA98, Metabolic Activation: RAT, LIVER, S-9, AROCLOR 1254, Method: STANDARD PLATE.
Setting [3] is: Test System: AMES SALMONELLA TYPHIMURIUM, Strain/Indicator: TA100, Metabolic Activation: NONE, Method: STANDARD PLATE.
[4] abbreviates: Test System: AMES SALMONELLA TYPHIMURIUM, Strain/Indicator: TA100, Metabolic Activation: RAT, LIVER, S-9, AROCLOR 1254, Method: STANDARD PLATE.

Active and inactive are the calls of the source. The rule behind the calls is not given here.

For `CC(O)CN` (stereo unspecified), the mutagenic call runs as follows: (Test System: AMES SALMONELLA TYPHIMURIUM, Strain/Indicator: TA98, Metabolic Activation: HAMSTER, LIVER, S-9, AROCLOR 1254 (10%), Method: PREINCUBATION) “inactive; negative”; (Test System: AMES SALMONELLA TYPHIMURIUM, Strain/Indicator: TA98, Metabolic Activation: NONE, Method: PREINCUBATION) “inactive; negative”; (Test System: AMES SALMONELLA TYPHIMURIUM, Strain/Indicator: TA98, Metabolic Activation: RAT, LIVER, S-9, AROCLOR 1254 (10%), Method: PREINCUBATION) “inactive; negative”; (Test System: AMES SALMONELLA TYPHIMURIUM, Strain/Indicator: TA98, Metabolic Activation: RAT, LIVER, S-9, KC 500, Method: PREINCUBATION) “inactive; negative”; (Test System: AMES SALMONELLA TYPHIMURIUM, Strain/Indicator: TA100, Metabolic Activation: HAMSTER, LIVER, S-9, AROCLOR 1254 (10%), Method: PREINCUBATION) “inactive; negative”; (Test System: AMES SALMONELLA TYPHIMURIUM, Strain/Indicator: TA100, Metabolic Activation: NONE, Method: PREINCUBATION) “inactive; negative”. Also, the mutagenic call (Test System: AMES SALMONELLA TYPHIMURIUM, Strain/Indicator: TA100, Metabolic Activation: RAT, LIVER, S-9, AROCLOR 1254 (10%), Method: PREINCUBATION) is “inactive; negative”; the mutagenic call (Test System: AMES SALMONELLA TYPHIMURIUM, Strain/Indicator: TA100, Metabolic Activation: RAT, LIVER, S-9, KC 500, Method: PREINCUBATION) is “inactive; negative”; the mutagenic call (Test System: AMES SALMONELLA TYPHIMURIUM, Strain/Indicator: TA1535, Metabolic Activation: HAMSTER, LIVER, S-9, AROCLOR 1254 (10%), Method: PREINCUBATION) was “active; positive”; the mutagenic call (Test System: AMES SALMONELLA TYPHIMURIUM, Strain/Indicator: TA1535, Metabolic Activation: NONE, Method: PREINCUBATION) is “inactive; negative”; the mutagenic call (Test System: AMES SALMONELLA TYPHIMURIUM, Strain/Indicator: TA1535, Metabolic Activation: RAT, LIVER, S-9, AROCLOR 1254 (10%), Method: PREINCUBATION) was “active; positive”; the mutagenic call (Test System: AMES SALMONELLA TYPHIMURIUM, Strain/Indicator: TA1535, Metabolic Activation: RAT, LIVER, S-9, KC 500, Method: PREINCUBATION) is “inactive; negative”. Further, the mutagenic call reads like this: (Test System: AMES SALMONELLA TYPHIMURIUM, Strain/Indicator: TA1537, Metabolic Activation: HAMSTER, LIVER, S-9, AROCLOR 1254 (10%), Method: PREINCUBATION) “inactive; negative”; (Test System: AMES SALMONELLA TYPHIMURIUM, Strain/Indicator: TA1537, Metabolic Activation: NONE, Method: PREINCUBATION) “inactive; negative”; (Test System: AMES SALMONELLA TYPHIMURIUM, Strain/Indicator: TA1537, Metabolic Activation: RAT, LIVER, S-9, AROCLOR 1254 (10%), Method: PREINCUBATION) “inactive; negative”; (Test System: AMES SALMONELLA TYPHIMURIUM, Strain/Indicator: TA1537, Metabolic Activation: RAT, LIVER, S-9, KC 500, Method: PREINCUBATION) “inactive; negative”; (Test System: AMES SALMONELLA TYPHIMURIUM, Strain/Indicator: TA1538, Metabolic Activation: NONE, Method: PREINCUBATION) “inactive; negative”; (Test System: AMES SALMONELLA TYPHIMURIUM, Strain/Indicator: TA1538, Metabolic Activation: RAT, LIVER, S-9, KC 500, Method: PREINCUBATION) “inactive; negative”. Further, the mutagenic call was “inactive; negative” (Test System: Ames Salmonella typhimurium, Strain/Indicator: TA98, Metabolic Activation: None, Method: Preincubation); “inactive; negative” (Test System: Ames Salmonella typhimurium, Strain/Indicator: TA98, Metabolic Activation: Rat, Liver, S9, Sodium phenobarbital and 5,6-benzoflavone (10%), Method: Preincubation); “inactive; negative” (Test System: Ames Salmonella typhimurium, Strain/Indicator: TA100, Metabolic Activation: None, Method: Preincubation); “inactive; negative” (Test System: Ames Salmonella typhimurium, Strain/Indicator: TA100, Metabolic Activation: Rat, Liver, S9, Sodium phenobarbital and 5,6-benzoflavone (10%), Method: Preincubation); “inactive; negative” (Test System: Ames Salmonella typhimurium, Strain/Indicator: TA1535, Metabolic Activation: None, Method: Preincubation); “inactive; negative” (Test System: Ames Salmonella typhimurium, Strain/Indicator: TA1535, Metabolic Activation: Rat, Liver, S9, Sodium phenobarbital and 5,6-benzoflavone (10%), Method: Preincubation). For the same molecule, the mutagenic call was “inactive; negative” (Test System: Ames Salmonella typhimurium, Strain/Indicator: TA1537, Metabolic Activation: None, Method: Preincubation); “inactive; negative” (Test System: Ames Salmonella typhimurium, Strain/Indicator: TA1537, Metabolic Activation: Rat, Liver, S9, Sodium phenobarbital and 5,6-benzoflavone (10%), Method: Preincubation); “inactive; negative” (Test System: E. COLI, Strain/Indicator: WP2 UVRA, Metabolic Activation: NONE, Method: PREINCUBATION); “inactive; negative” (Test System: E. COLI, Strain/Indicator: WP2 UVRA, Metabolic Activation: RAT, LIVER, S-9, KC 500, Method: PREINCUBATION); “inactive; negative” (Test System: E. coli, Strain/Indicator: WP2uvrA/pKM101, Metabolic Activation: None, Method: Preincubation); “inactive; negative” (Test System: E. coli, Strain/Indicator: WP2uvrA/pKM101, Metabolic Activation: Rat, Liver, S9, Sodium phenobarbital and 5,6-benzoflavone (10%), Method: Preincubation).

Consider `Cl/C=C(\Cl)c1c(Cl)c(Cl)c(Cl)c(Cl)c1Cl`, for which the mutagenic call is, setting by setting: under setting [1], “inactive; negative”; under setting [2], “inactive; negative”; under setting [3], “inactive; negative”; under setting [4], “inactive; negative”.

Regarding `Nc1ccc(F)cc1`, the mutagenic call is, setting by setting: (End Point: IN VITRO MICRONUCLEUS, Test System: CHL/IU CELLS, Metabolic Activation: RAT, LIVER, S-9, PHENOBARBITAL AND 5,6-BENZOFLAVONE) “active; positive”; (Test System: AMES SALMONELLA TYPHIMURIUM, Strain/Indicator: TA98, Metabolic Activation: HAMSTER, LIVER, S-9, AROCLOR 1254, Method: STANDARD PLATE) “active; positive”; under setting [1], “inactive; negative”; under setting [2], “active; positive”; (Test System: AMES SALMONELLA TYPHIMURIUM, Strain/Indicator: TA100, Metabolic Activation: HAMSTER, LIVER, S-9, AROCLOR 1254, Method: STANDARD PLATE) “active; positive”; under setting [3], “inactive; negative”. Besides, the mutagenic call under setting [4] was “active; positive”; the mutagenic call (Test System: E. COLI, Strain/Indicator: WP2 UVRA, Metabolic Activation: NONE, Method: FLUCTUATION TEST) was “inactive; negative”; the mutagenic call (Test System: MOUSE LYMPHOMA, Strain/Indicator: L5178Y (TK+/TK-), Metabolic Activation: NONE, Method: SUSPENSION/PLATE) was “active; positive. reevaluation of results: equivocal”; the mutagenic call (Test System: Mouse lymphoma, Strain/Indicator: L5178Y (tk+/tk-), Metabolic Activation: Rat, Liver, S-9, Aroclor 1254, Method: Suspension/plate) is “inconclusive (previous evaluation equivocal)”.

`OC1c2cccnc2C2OC2C1O` (stereo unspecified): the mutagenic call reads like this: under setting [3], “inactive; negative”; (Test System: AMES SALMONELLA TYPHIMURIUM, Strain/Indicator: TA100, Metabolic Activation: RAT, LIVER, S-9, AROCLOR 1254 (10 OR 20%), Method: STANDARD PLATE) “inactive; negative”.

Regarding `CC(C)CCOS(C)(=O)=O`, the mutagenic call was “active; positive” (End Point: IN VITRO MICRONUCLEUS, Test System: MOUSE LYMPHOMA L5178Y CELLS, Metabolic Activation: NONE); “inactive; negative” (End Point: IN VITRO MICRONUCLEUS, Test System: MOUSE LYMPHOMA L5178Y CELLS, Metabolic Activation: RAT, LIVER, S-9); “active; positive” under setting [3]; “active; positive” (Test System: AMES SALMONELLA TYPHIMURIUM, Strain/Indicator: TA100, Metabolic Activation: RAT, LIVER, S-9, Method: STANDARD PLATE).

As to `Nc1cc(Cl)c(Cl)c(Cl)c1`, the mutagenic call reads like this: under setting [1], “inactive; negative”; under setting [2], “inactive; negative”; under setting [3], “inactive; negative”; under setting [4], “inactive; negative”.

For `COc1c(C)c2c(c(O)c1C/C=C(\C)CCC(=O)O)C(=O)OC2`, the mutagenic call (Test System: AMES SALMONELLA TYPHIMURIUM, Strain/Indicator: TA98, Metabolic Activation: RAT, LIVER, MICROSOMES, PHENOBARBITAL, Method: STANDARD PLATE) is “inactive; negative” and the mutagenic call (Test System: AMES SALMONELLA TYPHIMURIUM, Strain/Indicator: TA100, Metabolic Activation: RAT, LIVER, MICROSOMES, PHENOBARBITAL, Method: STANDARD PLATE) is “inactive; negative”.
